Results on one molecule are retold here after patent publication US12427192B2, “Water soluble adjuvant and composition containing same” (Sumitomo Pharma Co., Ltd., priority 2019, dated 2025).

The subject of test [1] is HLA-A*02:01 transgenic mouse. The test can be described thus: Test 4: in vivo adjuvant activity, cocktail vaccine a, IFNγ ELISPOT. As for the experimental part:
Evaluation of in vivo adjuvant activity in HLA-A*02:01 transgenic mouse
The in vivo adjuvant activity of the compound of Example 1 and the compound of Reference example 12 was evaluated in the following procedure. To a cocktail vaccine comprising Compound of formula 4 prepared in Reference example 8 and Peptide SEQ ID No. 3 prepared in Reference example 3 with a preliminarily-emulsified composition (hereinafter, referred to as “cocktail vaccine a”) was added the compound prepared in Example 1 or the compound prepared in Reference example 12 respectively to prepare each vaccine. The vaccine was administered to a HLA-A*02:01 transgenic mouse, and the adjuvant activity of each vaccine was evaluated by the method of testing antigen-specific CTL induction.
The RMFPNAPYL (SEQ ID No. 1) in Compound of formula 4 and the VLDFAPPGA (SEQ ID No. 4) in Peptide SEQ ID No. 3 correspond to antigen peptides derived from an HLA-A*02:01-restricted WT1 protein.
HLA-A*02:01 transgenic mouse (C57BL/6CrHLA-A2.1DR1) lacks mouse MHC, and instead expresses a chimeric HLA of a human MHC (HLA-A*02:01) and a mouse MHC (H-2D^b), and HLA-DRB1*01:01. […]
The character for inducing CTLs specific to the antigen peptide (SEQ ID No. 1 or SEQ ID No. 4) by cocktail vaccine a was evaluated by measuring whether IFNγ can be produced upon stimulation of splenocytes from the mouse with the corresponding peptide. […]

For test [2], the system named is HLA-A*02:01 transgenic mouse. As to the kind of experiment: Test 14: in vivo adjuvant activity, cocktail vaccine i (oily suspension formulation), IFNγ ELISPOT. The settings on record: added to cocktail vaccine i (oily suspension formulation); 0.04 nmol or 0.4 nmol per body, twice; FIG. 15 and 16. As for the experimental part: Evaluation of In Vivo Adjuvant Activity in HLA-A*02:01 Transgenic Mouse
The in vivo adjuvant activity of the compound of Example 1 was evaluated in the following procedure. To a cocktail vaccine (oily suspension formulation) comprising Compound of formula 4 prepared in Reference example 8 and Peptide SEQ ID No. 3 prepared in Reference example 3 (hereinafter, referred to as “cocktail vaccine i”) was added the compound prepared in Example 1 to prepare a vaccine. The vaccine was administered to a HLA-A*02:01 transgenic mouse, and the adjuvant activity of the vaccine was evaluated by the method of testing antigen-specific CTL induction.
For example, the above oily suspension formulation was prepared as follows. […]
Cocktail vaccine i was injected to mice intradermally at the tail base area in an amount for administering 300 μg of Compound of formula 4 per body and 225 μg of Peptide SEQ ID No. 3 per body. […] Then, after removal of the supernatant from the wells, stained spots on the ELISPOT plate were counted.

As for `CCCCCNc1nc(N)nc(C)c1Cc1ccc(CN(C)CCOCCOCCOCCOCCO)cc1OC` [Example 1, 1-(4-{[2-amino-4-methyl-6-(pentylamino)pyrimidin-5-yl]methyl}-3-methoxyphenyl)-2-methyl-5,8,11,14-tetraoxa-2-azahexadecan-16-ol·trifluoroacetate], the “CTL counts responsive to Peptide of SEQ ID No. 1 or SEQ ID No. 4 compared with Reference example 12” value in test [1] (added to cocktail vaccine a, 32.5 ng Example 1 vs 22.5 ng Reference example 12 per body) was “more”. Besides, in test [1] (cocktail vaccine a, 32.5 ng Example 1 per body), the “induced CTL count on adding the compound to the vaccine” value is given as “increases”. Moreover, the “CTL counts responsive to Peptide SEQ ID No. 1 or SEQ ID No. 4 compared with adding no compound” value in test [2] is listed as “more”.
